Measurements taken from PMC12663137 (Nature Communications, 2025).
Where “and” joins values, the source holds several entries; their conditions need not be identical. Identical values can stand only once.

How the values were obtained:
[1] = tested on: tonic and clonic convulsions; design: method as in Daniels et al., Br J Pharmacol. 2013; details: UCB1244283 alone; ref Daniels et al., Br J Pharmacol. 2013; cited from earlier work
[2] = biological target: T1, SV2A WT and mutants (Homo sapiens, UniProt Q7L0J3, L655A); test: Modulatory effect of 30 µM UCB1244283 on 3H-UCB-J binding, effect of mutations (Fig. 4D); details: L655A
T1 construct: expressed in transfected cells; host or cells: HEK293 (ATCC CRL-1573), crude membranes
Description: (§1) Data are shown as mean ± s.d.; n = 6 biological replicates. […] Data are shown as mean ± s.d.; n = 6 biological replicates. […] Residual binding observed at 70 min was defined as 0%. For WT, data are shown as mean ± s.d. […] For the DMSO group, data are shown as mean ± s.d. (n = 4 biological replicates); for the other groups, data are shown as mean (n = 2). Source data for (A, D, E, F) are provided as a Source data file.
(§2) Ligand binding studies were carried out using crude membranes prepared from HEK293 cells (ATCC, CRL-1573) overexpressing mVenus-SV2AWT or SV2AEM. Membranes were prepared either from transiently transfected cells or from baculovirus-infected cells as described previously. Cells were washed with DPBS (Ca^2+ and Mg^2+ free), followed by resuspending in cold SH buffer (10 mM HEPES-Tris pH 7.4, 320 mM sucrose) containing protease inhibitor cocktail (MedChemExpress) to a density of 10^7 cells/ml. This cell suspension was homogenized by passing through a bead homogenizer (Isobiotec) with 10-micron clearance bead on ice. The lysate was then centrifuged at 4000 × g for 5 min at 4 °C, and the supernatant was aliquoted, frozen in liquid nitrogen, and stored at −80 °C. The mVenus fluorescence estimated using fluorescence size-exclusion chromatography (FSEC) was used to normalize expression levels of mVenus-SV2A mutants studied as detailed previously. For all binding studies, membranes containing […] protein (estimated by BCA method) per reaction were used.
(§3) An equal volume of dimethyl sulfoxide (DMSO) was added to control reactions. Reactions were arrested after 2 h by trapping the membranes on a Unifilter-GF/C 96-well filter plate pre-soaked with 0.1%(w/v) polyethyleneimine. Membranes were washed four times with 0.2 ml of cold binding buffer, dried, and 40 µl of scintillation liquid was added to each well. Radioactivity was monitored in MicroBeta2 plate counter. Residual binding observed in presence of either 10 µM ^1H-UCB-J or 10 µM ^1H-padsevonil was considered as background and subtracted from total binding. Estimates for Kd and Bmax were obtained by fitting the data to one site-specific binding curve using GraphPad Prism 10.

[3] = biological target: T2, SV2A WT and mutants (Homo sapiens, UniProt Q7L0J3, M301A); test: as above; details: M301A; 30 µM; enhancement in SV2AWT defined as 100%
T2 construct: expressed in transfected cells; host or cells: HEK293 (ATCC CRL-1573), crude membranes
Description: as §1, §2, §3

[4] = tested on: SV2A WT and mutants; test: as above; design: species or system human; details: Phe188, Tyr461 or Ser601 mutated to alanine
Description: as §1, §2, §3

[5] = biological target: T3, SV2A WT and mutants (Homo sapiens, UniProt Q7L0J3, L655Q); test: as above; details: L655Q
T3 construct: expressed in transfected cells; host or cells: HEK293 (ATCC CRL-1573), crude membranes
Description: as §1, §2, §3

[6] = biological target: T4, SV2AEM (Homo sapiens, UniProt Q7L0J3); test: Association kinetics of 3H-UCB-J after pre-incubation with UCB1244283 (Fig. 4F); format: binding
T4 construct: expressed in transfected cells; host or cells: HEK293 (ATCC CRL-1573), crude membranes (transient transfection or baculovirus)
Description: as §2
Residual radioligand binding observed in presence of 10 µM of ^1H-UCB-J was considered as background binding.

[7] = biological target: T5, SV2A (Homo sapiens, UniProt Q7L0J3); test: Steady-state (saturation) binding of 3H-UCB-J with 30 µM UCB1244283 or 1% DMSO (Fig. 4A)
T5 construct: expressed in transfected cells; host or cells: HEK293 (ATCC CRL-1573), crude membranes
Description: as §2, §3

[8] = Solubility remark (cryo-EM sample preparation); format: physicochemical; details: concentration could not be increased further
Description: convulsions (Daniels V, Wood M, Leclercq K, Kaminski RM, Gillard M. Modulation of the conformational state of the SV2A protein by an allosteric mechanism as evidenced by ligand binding assays. Br J Pharmacol. 2013 […]
understanding of how USC1244283 modulates the binding of antiseizure drugs to SV2A, the cryo-EM structure of an SV2A-UCB1244283 complex should be determined. […]
allosteric site or also the primary binding site? Are there conformational changes without BRV or UCB-J […]
In our original submission, we mentioned our unsuccessful attempt to determine the structure of the SV2A– […]
These observations are consistent with the allosteric site not being well formed (i.e., very low aƯinity) in unliganded SV2A; orthosteric ligand binding induces the formation of the allosteric site (increased aƯinity).
We have expanded the text to make these points clearer. […]
endogenous substrate is bound to the transporter, or from other oƯ-target eƯects.
- Like reported for BRV in the above-mentioned preprint, UCB1244283 prevents dissociation of UCB-J by blocking the luminal gate. […] I think such […]
experiments are important to obtain further insights into the action of UCB1244283. […]
the orthosteric site and the vesicular lumen. […]
accessing the orthosteric site, and we have included additional discussion in the revision.
(1 picture or pasted object on this page, not shown here)

T2 sequence (Q7L0J3 whole entry M301A): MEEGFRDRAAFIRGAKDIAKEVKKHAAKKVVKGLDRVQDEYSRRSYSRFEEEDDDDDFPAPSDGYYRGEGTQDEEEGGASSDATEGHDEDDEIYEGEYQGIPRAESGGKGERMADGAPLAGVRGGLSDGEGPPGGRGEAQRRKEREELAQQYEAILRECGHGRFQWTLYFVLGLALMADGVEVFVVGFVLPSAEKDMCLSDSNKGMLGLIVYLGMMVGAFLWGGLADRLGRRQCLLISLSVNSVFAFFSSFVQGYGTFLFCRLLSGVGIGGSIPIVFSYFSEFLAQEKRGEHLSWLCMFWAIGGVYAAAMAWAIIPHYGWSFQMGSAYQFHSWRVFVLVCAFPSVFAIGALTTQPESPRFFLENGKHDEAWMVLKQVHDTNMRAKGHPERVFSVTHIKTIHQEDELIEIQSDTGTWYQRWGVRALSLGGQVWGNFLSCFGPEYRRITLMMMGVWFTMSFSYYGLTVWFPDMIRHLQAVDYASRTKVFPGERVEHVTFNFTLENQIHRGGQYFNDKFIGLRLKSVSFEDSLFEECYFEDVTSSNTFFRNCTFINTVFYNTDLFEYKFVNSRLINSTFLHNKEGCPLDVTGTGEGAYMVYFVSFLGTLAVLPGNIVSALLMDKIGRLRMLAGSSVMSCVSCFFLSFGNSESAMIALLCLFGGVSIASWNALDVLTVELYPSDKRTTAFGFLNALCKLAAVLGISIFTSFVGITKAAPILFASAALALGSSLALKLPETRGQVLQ
T5 sequence (Q7L0J3 whole entry): as the sequence (Q7L0J3 whole entry M301A) above, with A301M counted along it
T4 sequence (Q7L0J3 141-742): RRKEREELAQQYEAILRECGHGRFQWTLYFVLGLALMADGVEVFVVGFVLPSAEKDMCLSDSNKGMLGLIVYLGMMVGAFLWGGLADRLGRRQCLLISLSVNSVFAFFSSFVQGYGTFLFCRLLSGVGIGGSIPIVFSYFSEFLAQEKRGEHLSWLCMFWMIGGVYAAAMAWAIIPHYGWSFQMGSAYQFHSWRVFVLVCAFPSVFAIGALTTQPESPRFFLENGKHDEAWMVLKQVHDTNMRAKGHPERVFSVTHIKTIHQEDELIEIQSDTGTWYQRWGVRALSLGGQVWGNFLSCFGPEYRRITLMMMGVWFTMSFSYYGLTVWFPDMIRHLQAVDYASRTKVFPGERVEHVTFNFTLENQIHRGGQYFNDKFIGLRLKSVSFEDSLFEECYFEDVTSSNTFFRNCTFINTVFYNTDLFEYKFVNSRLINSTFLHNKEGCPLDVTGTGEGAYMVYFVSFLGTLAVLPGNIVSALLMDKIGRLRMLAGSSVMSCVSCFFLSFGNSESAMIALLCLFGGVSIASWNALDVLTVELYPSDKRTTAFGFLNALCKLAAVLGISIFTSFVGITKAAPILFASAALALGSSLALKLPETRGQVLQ
T3 sequence (Q7L0J3 whole entry L655Q): as the sequence (Q7L0J3 whole entry M301A) above, with A301M, L655Q counted along it
T1 sequence (Q7L0J3 whole entry L655A): as the sequence (Q7L0J3 whole entry M301A) above, with A301M, L655A counted along it

For `COc1ccccc1NC(=O)CC(C)Cc1cc(C)cc(C)c1` (centres unmarked) [UCB1244283], the effect against convulsions [1] is listed as “clear protective effect against tonic and clonic convulsions”, the “allosteric modulation of 3H-UCB-J binding” value [2] is listed as “did not impair modulation” and the “UCB1244283 modulation (%)” value [3] is listed as 204.26% and 178.72% and 164.89% and 193.57% and 161.39% and 224.53% and 226.42%. The “allosteric potentiation of 3H-UCB-J binding” value [4] was “loss of allosteric potentiation”, the “allosteric modulation of 3H-UCB-J binding” value [5] was “abolished allosteric modulation” and the “3H-UCB-J Binding (%)” value ([6]; pre-incubate 10 μM UCB1244283, 0 min) was 0.02% and 0.00168%. The “3H-UCB-J Binding (%)” value ([6]; pre-incubate 10 μM UCB1244283, 0.5 min) was 0.16% and 0.14%, the “3H-UCB-J Binding (%)” value ([6]; pre-incubate 10 μM UCB1244283, 1 min) was 0.20% and 0.18% and the “3H-UCB-J Binding (%)” value ([6]; pre-incubate 10 μM UCB1244283, 1.5 min) was 0.16% and 0.22%. The “3H-UCB-J Binding (%)” value ([6]; pre-incubate 10 μM UCB1244283, 2 min) was 0.23% and 0.25%, the “3H-UCB-J Binding (%)” value ([6]; pre-incubate 10 μM UCB1244283, 2.5 min) was 0.16% and 0.30% and the “3H-UCB-J Binding (%)” value ([6]; pre-incubate 10 μM UCB1244283, 3 min) was 0.29% and 0.33%. For the same molecule, the “3H-UCB-J Binding (%)” value ([6]; pre-incubate 10 μM UCB1244283, 3.5 min) was 0.30% and 0.35%, the “3H-UCB-J Binding (%)” value ([6]; pre-incubate 10 μM UCB1244283, 4 min) was 0.29% and 0.36% and the “3H-UCB-J Binding (%)” value ([6]; pre-incubate 10 μM UCB1244283, 4.5 min) was 0.41% and 0.37%. For the same molecule, the “3H-UCB-J Binding (%)” value ([6]; pre-incubate 10 μM UCB1244283, 5 min) was 0.39%, the “3H-UCB-J Binding (%)” value ([6]; pre-incubate 30 μM UCB1244283, 0 min) was 0.00112% and 0.00142% and the “3H-UCB-J Binding (%)” value ([6]; pre-incubate 30 μM UCB1244283, 0.5 min) was 0.10%. The “3H-UCB-J Binding (%)” value ([6]; pre-incubate 30 μM UCB1244283, 1 min) was 0.11%, the “3H-UCB-J Binding (%)” value ([6]; pre-incubate 30 μM UCB1244283, 1.5 min) was 0.13% and 0.12% and the “3H-UCB-J Binding (%)” value ([6]; pre-incubate 30 μM UCB1244283, 2 min) was 0.14%. The “3H-UCB-J Binding (%)” value ([6]; pre-incubate 30 μM UCB1244283, 2.5 min) was 0.14% and 0.15%, the “3H-UCB-J Binding (%)” value ([6]; pre-incubate 30 μM UCB1244283, 3 min) was 0.15% and the “3H-UCB-J Binding (%)” value ([6]; pre-incubate 30 μM UCB1244283, 3.5 min) was 0.14% and 0.15%. The “3H-UCB-J Binding (%)” value ([6]; pre-incubate 30 μM UCB1244283, 4 min) was 0.16%, the “3H-UCB-J Binding (%)” value ([6]; pre-incubate 30 μM UCB1244283, 4.5 min) was 0.22% and 0.16% and the “3H-UCB-J Binding (%)” value ([6]; pre-incubate 30 μM UCB1244283, 5 min) was 0.23% and 0.19%. For the same molecule, the “3H-UCB-J Binding (f.mol/assay)” value ([7]; 3H-UCB-J 0.78 nM) was 6 f.mol/assay and 7 f.mol/assay, the “3H-UCB-J Binding (f.mol/assay)” value ([7]; 3H-UCB-J 1.56 nM) was 11 f.mol/assay and 8 f.mol/assay and 10 f.mol/assay and 13 f.mol/assay and 14 f.mol/assay and the “3H-UCB-J Binding (f.mol/assay)” value ([7]; 3H-UCB-J 6.25 nM) was 35 f.mol/assay and 45 f.mol/assay and 39 f.mol/assay and 44 f.mol/assay and 54 f.mol/assay. For the same molecule, the “3H-UCB-J Binding (f.mol/assay)” value ([7]; 3H-UCB-J 12.50 nM) was 66 f.mol/assay and 56 f.mol/assay and 69 f.mol/assay and 73 f.mol/assay and 70 f.mol/assay and 60 f.mol/assay, the “3H-UCB-J Binding (f.mol/assay)” value ([7]; 3H-UCB-J 25.00 nM) was 90 f.mol/assay and 106 f.mol/assay and 118 f.mol/assay and 84 f.mol/assay and 111 f.mol/assay and the “3H-UCB-J Binding (f.mol/assay)” value ([7]; 3H-UCB-J 50.00 nM) was 82 f.mol/assay and 91 f.mol/assay and 128 f.mol/assay and 130 f.mol/assay and 116 f.mol/assay and 122 f.mol/assay. For the same molecule, the “3H-UCB-J Binding (f.mol/assay)” value ([7]; 3H-UCB-J 100.00 nM) was 104 f.mol/assay and 70 f.mol/assay and 121 f.mol/assay and 105 f.mol/assay and 88 f.mol/assay and 115 f.mol/assay and the solubility [8] was “poor solubility”.
